The target of assay [1] is T1, Acetylcholinesterase (Bos taurus) (UniProt P23795).
T1 sequence (whole entry): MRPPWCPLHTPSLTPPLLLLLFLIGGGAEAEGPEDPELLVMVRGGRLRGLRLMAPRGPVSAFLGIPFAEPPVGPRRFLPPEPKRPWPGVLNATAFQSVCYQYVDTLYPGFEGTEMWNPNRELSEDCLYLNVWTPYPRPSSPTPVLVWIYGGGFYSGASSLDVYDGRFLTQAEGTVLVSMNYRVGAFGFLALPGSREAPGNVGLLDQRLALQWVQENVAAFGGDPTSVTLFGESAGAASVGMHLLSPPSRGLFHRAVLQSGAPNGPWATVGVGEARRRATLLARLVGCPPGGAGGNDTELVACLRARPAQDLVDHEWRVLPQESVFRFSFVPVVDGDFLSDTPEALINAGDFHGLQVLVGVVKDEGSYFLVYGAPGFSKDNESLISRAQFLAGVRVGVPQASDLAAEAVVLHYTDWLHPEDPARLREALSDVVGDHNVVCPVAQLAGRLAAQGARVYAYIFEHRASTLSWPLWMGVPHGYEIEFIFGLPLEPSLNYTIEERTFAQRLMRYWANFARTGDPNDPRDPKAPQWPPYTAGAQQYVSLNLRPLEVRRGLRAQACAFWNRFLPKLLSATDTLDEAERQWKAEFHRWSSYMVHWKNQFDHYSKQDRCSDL
Kind of assay: Inhibition of bovine erythrocytes AChE using acetylthiocholine iodide as substrate at 100 uM incubated for 15 to 20 mins by Ellman's methods relative to control. The settings on record: Erythrocyte, time min 15-20. It is filed as tissue-based. (In general: Ellman's reagent forms a yellow product with free thiols.)

The target of another assay is T2, Acetylcholinesterase (Bos taurus, UniProt P23795).
T2 sequence (P23795 whole entry): T1 sequence (whole entry)
Kind of assay: Inhibition of bovine erythrocytes AChE using acetylthiocholine iodide as substrate incubated for 15 to 20 mins by Ellman's methods. Details: species or system Erythrocyte.

The values that follow come from ChEMBL document CHEMBL4699505, “Lycosquarrines A-R, Lycopodium Alkaloids from Phlegmariurus squarrosus” (J Nat Prod, 2020).

What is called inhibition is the share of the control response that was lost under treatment. A high value points to a response far below the control. As for `C[C@H]1C[C@]23C4=CCCN2CCC[C@@H]3[C@H](O)[C@@H](O)[C@@H]4[C@@H]1O`, the inhibition in assay [1] was less than 50%. Still for that read-out and setting: in the case of `C[C@@H]1C[C@H]2C[C@H](OC(=O)CCc3ccc(O)cc3)[C@@H]3CCCN4CC[C@H]5O[C@]25[C@]34C1` it was less than 50%; in that of `C/C=C1\[C@@H]2Cc3[nH]c(=O)ccc3[C@@]1(N)C[C@H](CO)C2`, less than 50%. On to `C[C@H]1CC2=[N+]([O-])CCC[C@]23c2cccnc2C[C@@H]3[C@@H]1O`, for which, in assay [1], the inhibition was less than 50%.

As usually defined, the IC50 is the point on the concentration scale where inhibition reaches its midpoint. High values mean weaker potency, low ones greater potency. `C/C=C1\[C@H]2C=C(C(=O)OC)C[C@]1(N)c1ccc(=O)[nH]c1C2` yielded an IC50 against Acetylcholinesterase of 4200 nM. As to `C[C@H]1C[C@]23C4=CCCN2CCC[C@H]3[C@@H](O)C[C@@H]4[C@@H]1O`, the inhibition in assay [1] is less than 50%. `C/C=C1\[C@H]2C=C(C)C[C@]1(N)c1ccc(=O)[nH]c1C2` [HUPERZINE A] registered an IC50 against Acetylcholinesterase of 100 nM. The compound `C[C@H]1C[C@@]23NCCC[C@@H]2[C@H](Cc2ncccc23)[C@@H]1O` displayed an inhibition in assay [1] of less than 50%.

`O=C1C[C@@H]2C=C(CO)C[C@@]34[C@@H]1CCCN3CCC[C@H]24` gave an inhibition in assay [1] of less than 50%. The compound `O=c1ccc2c([nH]1)C[C@@H]1C[C@@H](CO)C[C@]23NCCC[C@H]13` showed an inhibition in assay [1] of less than 50%. Same read-out and setting: to `C[C@@H]1C[C@H]2Cc3[nH]c(=O)ccc3[C@]3(C1)NCC[C@@H](O)[C@H]23` belongs less than 50%. On the same count and under the same terms, in the case of `C[C@H]1C[C@@]23[C@H]4CCCN2CC[C@H]2O[C@]23[C@H](C[C@@H]4OC(=O)CCc2ccc(O)cc2)[C@@H]1O` it was less than 50%; in that of `C[C@@H]1C[C@@]2(O)C[C@@H]3O[C@H]4CC[N+]5([O-])CCC[C@@H]3[C@@]5(C1)[C@]42O` (stereo partly specified), less than 50%; in that of `C[C@H]1C[C@@]23NCCC[C@@H]2[C@](O)(Cc2ncccc23)[C@H]1O`, less than 50%. On to `CO[C@@]12C[C@@H]3C[C@@H](C)C[C@@]4(O1)N1CCC[C@@]2(O)[C@]34CCC1`, for which the inhibition in assay [1] is less than 50%.

`C[C@@H]1C[C@H]2C[C@@H]3O[C@]24[C@H](O)CCN2CCC[C@@H]3[C@]24C1`: the inhibition in assay [1] is less than 50%. For `C/C=C1\[C@H]2C=C(CO)C[C@]1(N)c1ccc(=O)[nH]c1C2`, the IC50 at Acetylcholinesterase was 2100 nM. In assay [1], `C[C@@H]1C[C@H]2Cc3[nH]c(=O)ccc3[C@@](N)(C1)/C2=C/CO` gave an inhibition of less than 50%. As to `C[C@@H]1C[C@@]2(O)C[C@H](OC(=O)CCc3ccc(O)cc3)[C@@H]3CCCN4CC[C@H]5O[C@@]52[C@]34C1`, the inhibition in assay [1] was less than 50%. Still for that read-out and setting: to `CC(=O)NC1=C2CCC[N+]3([O-])CCC[C@]4(O)[C@H](C1)C[C@@H](C)C[C@]243` (stereo partly specified) belongs less than 50%.

In assay [1], `C[C@H]1C=C2N3CCC[C@@H]4C(=O)C[C@H]([C@@H]1O)[C@]24CCC3` returned an inhibition of less than 50%.
